In ChEMBL document CHEMBL2434862, “4-Phenylbutyric acid protects against neuronal cell death by primarily acting as a chemical chaperone rather than histone deacetylase inhibitor” (Bioorg Med Chem Lett, 2013):
Active and inactive are the calls of the source. The calls are words filed in the database; no cut-off is given here.

How the values were obtained:
[1] = molecular target: Histone deacetylase (Homo sapiens) (UniProt Q13547+O15379+Q9UBN7+Q92769+Q9UQL6+Q8WUI4+Q9BY41+Q96DB2+P56524+Q9UKV0+Q969S8); details: SH-SY5Y, at 3 mM
Description: Inhibition of HDAC in human SH-SY5Y cells under ER stress assessed as acetylated H3 levels at 3 mM after 48 hrs by Western blot analysis in presence of tunicamycin

[2] = Chemical chaperone activity assessed as suppression of alpha-lactalbumin-bovine serum albumin aggregation at 3 mM by turbidity assay; assay type: functional

Structure (SMILES)	inhibition [1]	Activity [2]
COc1ccc(CCCC(=O)O)cc1	Active	
O=C(O)CCCc1ccccc1	Active	Active
O=C(O)CCCc1ccc([N+](=O)[O-])cc1	Active	
